Measurements published in publication PMC6278923 (Insect biochemistry and molecular biology, 2018).

Target: T1, RproOR1•RproOrco (Rhodnius prolixus, UniProt T1H977)
T1 sequence (T1H977 1-409): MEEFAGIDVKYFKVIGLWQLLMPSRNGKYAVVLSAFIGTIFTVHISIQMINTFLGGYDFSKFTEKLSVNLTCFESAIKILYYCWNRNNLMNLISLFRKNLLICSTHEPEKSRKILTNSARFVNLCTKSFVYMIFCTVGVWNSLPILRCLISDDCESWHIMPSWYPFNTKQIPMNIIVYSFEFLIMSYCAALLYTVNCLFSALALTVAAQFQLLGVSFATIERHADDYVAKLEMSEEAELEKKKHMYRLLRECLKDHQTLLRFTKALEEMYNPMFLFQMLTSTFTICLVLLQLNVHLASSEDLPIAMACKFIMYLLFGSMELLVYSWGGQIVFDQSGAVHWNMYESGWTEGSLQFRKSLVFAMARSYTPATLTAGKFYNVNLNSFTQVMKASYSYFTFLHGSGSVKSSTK
Test: two-electrode voltage clamp, Xenopus oocytes
Assay type: cell-based
Settings: agonist; -70 mV; coexpressed with RproOrco

| Structure (SMILES) | two-electrode voltage clamp, Xenopus oocytes |
| --- | --- |
| CC/C=C\CCOC(C)=O [(Z)-3-hexenyl acetate] | moderate responses to 3-methyl-1-butanol, methyl butyrate, (Z)-3-hexenyl acetate |
| CCCCC=O [pentanal] | moderate responses to 3-methyl-1-butanol, methyl butyrate, (Z)-3-hexenyl acetate, pentanal |
